# Like-named read-outs stand apart in the source and are kept apart here.
# Assays:
# Format in all cases: biochemical
# JAK2 = JAK2 (Homo sapiens (Human), UniProt O60674); assay: JAK Caliper Enzyme Assay at 1 mM ATP, JAK2
# How it was run: (§1)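 First, compound was incubated at room temperature with recombinant human kinase domain, a synthetic peptide and 1 mM ATP until 20–30% of peptide was phosphorylated. Next, EDTA stopped the reaction. Finally, electrophoretic separation quantified product, and percent effect relative to controls was plotted against concentration.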
# JAK3 = JAK3 (Homo sapiens (Human), UniProt P52333); assay: JAK Caliper Enzyme Assay at 1 mM ATP, JAK3
# How it was run: (§2)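 Recombinant human kinase domains phosphorylated a fluorescent synthetic peptide at room temperature, with enzyme level and time tuned to 20% to 30% conversion; EDTA stop buffer ended reactions. Mobility-shift separation gave percent product from peak heights, normalised to DMSO and positive controls, and IC50s came from concentration–effect curves.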
# TYK2 = TYK2 (Homo sapiens (Human), UniProt P29597); assay: JAK Caliper Enzyme Assay at 1 mM ATP, TYK2
# How it was run: as §1
# JAK1 = JAK1 (Homo sapiens (Human), UniProt P23458); assay: JAK Caliper Enzyme Assay at 1 mM ATP, JAK1
# How it was run: as §2
# Chain of JAK2 (O60674 849-1124): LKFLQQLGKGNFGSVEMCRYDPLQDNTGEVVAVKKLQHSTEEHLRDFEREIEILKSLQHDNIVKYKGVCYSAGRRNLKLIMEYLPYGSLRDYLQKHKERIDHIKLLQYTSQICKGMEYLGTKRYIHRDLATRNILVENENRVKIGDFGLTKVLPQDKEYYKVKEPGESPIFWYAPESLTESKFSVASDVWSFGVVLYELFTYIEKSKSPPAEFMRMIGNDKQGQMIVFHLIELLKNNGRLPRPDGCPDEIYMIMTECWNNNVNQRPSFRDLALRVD
# Chain of JAK1 (P23458 875-1153): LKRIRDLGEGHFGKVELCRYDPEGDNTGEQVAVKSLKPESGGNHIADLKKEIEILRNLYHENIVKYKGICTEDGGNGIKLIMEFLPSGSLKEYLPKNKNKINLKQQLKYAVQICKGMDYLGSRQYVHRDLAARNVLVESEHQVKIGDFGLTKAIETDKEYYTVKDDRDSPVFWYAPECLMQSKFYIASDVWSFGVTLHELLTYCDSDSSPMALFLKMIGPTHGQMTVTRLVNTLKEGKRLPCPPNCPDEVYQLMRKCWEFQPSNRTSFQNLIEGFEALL
# Chain of JAK3 (P52333 822-1111): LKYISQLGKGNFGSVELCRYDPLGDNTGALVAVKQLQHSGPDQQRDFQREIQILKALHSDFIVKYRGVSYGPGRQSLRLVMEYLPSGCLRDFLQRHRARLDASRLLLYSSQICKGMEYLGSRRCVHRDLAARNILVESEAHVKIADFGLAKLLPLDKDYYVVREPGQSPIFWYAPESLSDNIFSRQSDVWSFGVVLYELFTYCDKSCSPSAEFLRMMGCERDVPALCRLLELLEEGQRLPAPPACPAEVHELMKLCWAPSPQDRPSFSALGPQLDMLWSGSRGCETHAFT
# Chain of TYK2 (P29597 897-1176): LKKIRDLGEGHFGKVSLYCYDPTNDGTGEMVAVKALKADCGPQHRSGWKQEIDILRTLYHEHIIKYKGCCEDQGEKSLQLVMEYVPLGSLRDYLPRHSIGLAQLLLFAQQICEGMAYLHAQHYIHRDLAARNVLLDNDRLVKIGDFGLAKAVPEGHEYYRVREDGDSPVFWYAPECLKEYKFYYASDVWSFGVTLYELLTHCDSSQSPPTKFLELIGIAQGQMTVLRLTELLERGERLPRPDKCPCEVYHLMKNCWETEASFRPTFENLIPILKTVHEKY
SMILES,IC50 (JAK2) [nM],IC50 (JAK3) [µM],IC50 (TYK2) [nM],IC50 (JAK1) [µM],IC50 (JAK2; JAK Caliper enzyme assay) [nM],IC50 (JAK3; JAK Caliper enzyme assay) [µM],IC50 (TYK2; JAK Caliper enzyme assay) [nM],IC50 (JAK1; JAK Caliper enzyme assay) [µM]
"N#CC[C@]1(n2ncc(-c3cc(-c4c[nH]nc4CO)cc4ncccc34)n2)C[C@@H](C#N)C1 [Example 318, cis-3-(cyanomethyl)-3-(4-{7-[3-(hydroxymethyl)-1H-pyrazol-4-yl]quinolin-5-yl}-2H-1,2,3-triazol-2-yl)cyclobutanecarbonitrile]",137,9.27,17,0.54,–,–,–,–
"CO[C@H]1C[C@](CC#N)(n2cc(-c3cc(-c4c[nH]nc4N)cc4ncccc34)cn2)C1 [Example 291, (trans-1-{4-[7-(3-amino-1H-pyrazol-4-yl)quinolin-5-yl]-1H-pyrazol-1-yl}-3-methoxycyclobutyl)acetonitrile]",3740,> 10,343,8.82,–,–,–,–
"N#CC[C@]1(n2ncc(-c3cc(-c4nc(CO)cs4)cc4ncccc34)n2)C[C@H](C#N)C1 [Example 341, trans-3-(cyanomethyl)-3-(4-{7-[4-(hydroxymethyl)-1,3-thiazol-2-yl]quinolin-5-yl}-2H-1,2,3-triazol-2-yl)cyclobutanecarbonitrile]",649,> 10,57,3.24,–,–,–,–
"CS(=O)(=O)Nc1ccc(-c2cc(-c3cnn(C4(CC#N)CC(C#N)C4)n3)c3cccnc3c2)nc1 (stereo not drawn) [Example 374, N-[6-(5-{2-[cis-3-cyano-1-(cyanomethyl)cyclobutyl]-2H-1,2,3-triazol-4-yl}quinolin-7-yl)pyridin-3-yl]methanesulfonamide]",–,–,–,–,25,2.89,9,0.053
"N#CCC1(n2ccc(-c3nc(Oc4cccc(N)n4)cc4ncccc34)n2)CC(C#N)C1 (stereo not drawn) [Example 266, trans-3-(3-{7-[(6-aminopyridin-2-yl)oxy]-1,6-naphthyridin-5-yl}-1H-pyrazol-1-yl)-3-(cyanomethyl)cyclobutanecarbonitrile]",3320,> 10,1910,> 10,–,–,–,–
"N#CC[C@]1(n2ncc(-c3cc(-c4cccc(C(=O)O)n4)cc4ncccc34)n2)C[C@@H](C#N)C1 [Example 371, 6-(5-{2-[trans-3-cyano-1-(cyanomethyl)cyclobutyl]-2H-1,2,3-triazol-4-yl}quinolin-7-yl)pyridine-2-carboxylic acid]",1610,> 10,110,9.28,–,–,–,–
"N#CC[C@]1(n2ccc(-c3nc(-c4cn[nH]c4CO)cc4ncccc34)n2)C[C@H](C#N)C1 [Example 91, trans-3-(cyanomethyl)-3-(3-{7-[5-(hydroxymethyl)-1H-pyrazol-4-yl]-1,6-naphthyridin-5-yl}-1H-pyrazol-1-yl)cyclobutanecarbonitrile]",160,> 10,34,0.562,–,–,–,–
"N#CC[C@]1(n2ccc(-c3nc(-c4cccc(O)n4)cc4ncccc34)n2)C[C@@H](C#N)C1 [Example 181, cis-3-(cyanomethyl)-3-{3-[7-(6-hydroxypyridin-2-yl)-1,6-naphthyridin-5-yl]-1H-pyrazol-1-yl}cyclobutanecarbonitrile]",123,> 10,40,0.853,–,–,–,–
"Cc1cn([C@]2(CC#N)C[C@@H](C#N)C2)nc1-c1nc(-c2cn[nH]c2N)cc2ncccc12 [Example 276, trans-3-{3-[7-(5-amino-1H-pyrazol-4-yl)-1,6-naphthyridin-5-yl]-4-methyl-1H-pyrazol-1-yl}-3-(cyanomethyl)cyclobutanecarbonitrile]",947,> 10,144,3.48,–,–,–,–
"Cn1cc(-c2cc3nccnc3c(-c3cnn(C4(CC#N)CN(CC#N)C4)c3)n2)cn1 [Example 480, 2,2′-(3-{4-[7-(1-methyl-1H-pyrazol-4-yl)pyrido[3,4-b]pyrazin-5-yl]-1H-pyrazol-1-yl}azetidine-1,3-diyl)diacetonitrile]",–,–,–,–,17,3.75,11,0.145
"N#CC[C@]1(n2ncc(-c3cc(-c4ccc(OCCN)cc4)cc4ncccc34)n2)C[C@H](C#N)C1 [Example 440, trans-3-(4-{7-[4-(2-aminoethoxy)phenyl]quinolin-5-yl}-2H-1,2,3-triazol-2-yl)-3-(cyanomethyl)cyclobutanecarbonitrile]",–,–,–,–,805,> 10,139,6.43
"N#CC[C@]1(n2ccc(-c3nc(-c4cccc(C(N)=O)n4)cc4ncccc34)n2)C[C@H](C#N)C1 [Example 214, 6-(5-{1-[cis-3-cyano-1-(cyanomethyl)cyclobutyl]-1H-pyrazol-3-yl}-1,6-naphthyridin-7-yl)pyridine-2-carboxamide]",471,> 10,53,2.02,–,–,–,–
"Cc1cc(-c2nc(-c3cc[nH]n3)cc3ncccc23)nn1[C@]1(CC#N)C[C@H](C#N)C1 [Example 268, cis-3-(cyanomethyl)-3-{5-methyl-3-[7-(1H-pyrazol-3-yl)-1,6-naphthyridin-5-yl]-1H-pyrazol-1-yl}cyclobutanecarbonitrile]",33,7.79,8,0.081,–,–,–,–

# Other lines, results leading:
IC50 (JAK2) [nM],IC50 (JAK3) [µM],IC50 (TYK2) [nM],IC50 (JAK1) [µM],IC50 (JAK2; JAK Caliper enzyme assay) [nM],IC50 (JAK3; JAK Caliper enzyme assay) [µM],IC50 (TYK2; JAK Caliper enzyme assay) [nM],IC50 (JAK1; JAK Caliper enzyme assay) [µM],SMILES
–,–,–,–,> 10000,> 10,3790,> 10,"Cn1cc(-c2cc3nccnc3c(-c3ccn(C4(CC#N)CN(CC(F)(F)F)C4)n3)n2)cn1 [Example 482, [3-{3-[7-(1-methyl-1H-pyrazol-4-yl)pyrido[3,4-b]pyrazin-5-yl]-1H-pyrazol-1-yl}-1-(2,2,2-trifluoroethyl)azetidin-3-yl]acetonitrile]"
4160,> 10,843,9.06,–,–,–,–,"CS(=O)(=O)N1CC(CC#N)(n2ccc(-c3nc(-c4cnn(C(F)(F)F)c4)cc4ncccc34)n2)C1 [Example 118, [1-(methylsulfonyl)-3-(3-{7-[1-(trifluoromethyl)-1H-pyrazol-4-yl]-1,6-naphthyridin-5-yl}-1H-pyrazol-1-yl)azetidin-3-yl]acetonitrile]"
–,–,–,–,3180,> 10,259,8.3,"CS(=O)(=O)N1CC(CC#N)(n2cnc(-c3cc(-c4cn[nH]c4)cc4ncccc34)n2)C1 [Example 453, [1-(methylsulfonyl)-3-{3-[7-(1H-pyrazol-4-yl)quinolin-5-yl]-1H-1,2,4-triazol-1-yl}azetidin-3-yl]acetonitrile]"
31,2.06,9,0.05,–,–,–,–,"N#CC[C@]1(n2ccc(-c3nc(-c4ccc(N)nc4)cc4ncccc34)n2)C[C@@H](C#N)C1 [Example 195, cis-3-{3-[7-(6-aminopyridin-3-yl)-1,6-naphthyridin-5-yl]-1H-pyrazol-1-yl}-3-(cyanomethyl)cyclobutanecarbonitrile]"
216,> 10,15,0.324,–,–,–,–,"N#CCC1CC(CC#N)(n2ccc(-c3nc(-c4ccn[nH]4)cc4ncccc34)n2)C1 (stereo not drawn) [Example 23, 2,2′-(cis-1-{3-[7-(1H-pyrazol-5-yl)-1,6-naphthyridin-5-yl]-1H-pyrazol-1-yl}cyclobutane-1,3-diyl)diacetonitrile]"
354,> 10,22,1.01,–,–,–,–,"CO[C@H]1C[C@](CC#N)(n2ccc(-c3nc(-c4c[nH]nc4N)cc4ncccc34)n2)C1 [Example 95, (trans-1-{3-[7-(3-amino-1H-pyrazol-4-yl)-1,6-naphthyridin-5-yl]-1H-pyrazol-1-yl}-3-methoxycyclobutyl)acetonitrile]"
2390,> 10,418,3.58,–,–,–,–,"CC(C)(O)[C@H]1C[C@@](CC#N)(n2ccc(-c3nc(-c4cn[nH]c4)cc4ncccc34)n2)C1 [Example 82, [cis-3-(2-hydroxpropan-2-yl)-1-{3-[7-(1H-pyrazol-4-yl)-1,6-naphthyridin-5-yl]-1H-pyrazol-1-yl}cyclobutyl]acetonitrile]"
451,> 10,33,1.12,–,–,–,–,"CS(=O)(=O)N1CC(CC#N)(n2ccc(-c3nc(-c4ccc(N)nc4N)cc4ncccc34)n2)C1 [Example 230, [3-{3-[7-(2,6-diaminopyridin-3-yl)-1,6-naphthyridin-5-yl]-1H-pyrazol-1-yl}-1-(methylsulfonyl)azetidin-3-yl]acetonitrile]"
–,–,–,–,7160,> 10,283,> 10,"CS(=O)(=O)N1CC(CC#N)(n2cnc(-c3cc(-c4ccc(=O)[nH]c4)cc4ncccc34)n2)C1 [Example 451, [1-(methylsulfonyl)-3-{3-[7-(6-oxo-1,6-dihydropyridin-3-yl)quinolin-5-yl]-1H-1,2,4-triazol-1-yl}azetidin-3-yl]acetonitrile]"
915,> 10,190,3.85,–,–,–,–,"Cn1nc(CO)cc1-c1cc2ncccc2c(-c2ccn([C@]3(CC#N)C[C@@H](C#N)C3)n2)n1 [Example 60, trans-3-(cyanomethyl)-3-(3-{7-[3-(hydroxymethyl)-1-methyl-1H-pyrazol-5-yl]-1,6-naphthyridin-5-yl}-1H-pyrazol-1-yl)cyclobutanecarbonitrile]"
1620,> 10,189,9.35,–,–,–,–,"Cc1ncc(-c2cc3ncccc3c(-c3ccn(C4(CC#N)CN(S(C)(=O)=O)C4)n3)n2)cc1N [Example 217, [3-{3-[7-(5-amino-6-methylpyridin-3-yl)-1,6-naphthyridin-5-yl]-1H-pyrazol-1-yl}-1-(methylsulfonyl)azetidin-3-yl]acetonitrile]"
